According to ChEMBL document CHEMBL1649248, “Two distinct major facilitator superfamily drug efflux pumps mediate chloramphenicol resistance in Streptomyces coelicolor” (2009):
≈ marks a conversion by molar mass, not a printed value. Peptide text beside a SMILES is read from it. * marks the point of attachment. βNA = c1ccc2cc(N*)ccc2c1

Assays:
[1] = tested on: Streptomyces coelicolor; test: Antimicrobial activity against Streptomyces coelicolor B758 overexpressing cmlR1 after 48 hrs relative to wild type; type: functional
[2] = tested on: Streptomyces coelicolor; test: Antimicrobial activity against apramycin-resistant cmlR2 null mutant Streptomyces coelicolor B756 after 48 hrs relative to wild type; type: functional
[3] = tested on: Streptomyces coelicolor; test: Antimicrobial activity against apramycin-resistant cmlR1 null mutant Streptomyces coelicolor B754 after 48 hrs relative to wild type; type: functional
[4] = tested on: Streptomyces coelicolor; test: Antimicrobial activity against Streptomyces coelicolor B759 overexpressing cmlR2 after 48 hrs relative to wild type; type: functional
[5] = tested on: Streptomyces coelicolor; test: Inhibition of MFS efflux pump in Streptomyces coelicolor assessed as reduction in chloramphenicol MIC at 50 ug/ml after 48 hrs relative to control
[6] = tested on: Streptomyces coelicolor; test: Inhibition of MFS efflux pump in apramycin-resistant cmlR1 null mutant Streptomyces coelicolor assessed as reduction in chloramphenicol MIC at 50 ug/ml after 48 hrs relative to control
[7] = tested on: Streptomyces coelicolor; test: Inhibition of MFS efflux pump in apramycin-resistant cmlR2 null mutant Streptomyces coelicolor assessed as reduction in chloramphenicol MIC at 10 ug/ml after 48 hrs relative to control
[8] = tested on: Streptomyces coelicolor; test: Inhibition of MFS efflux pump in apramycin-resistant cmlR2 null mutant Streptomyces coelicolor assessed as reduction in chloramphenicol MIC at 50 ug/ml after 48 hrs relative to control
[9] = tested on: Streptomyces coelicolor; test: Inhibition of MFS efflux pump in apramycin-resistant cmlR1 null mutant Streptomyces coelicolor assessed as reduction in chloramphenicol MIC at 75 ug/ml after 48 hrs relative to control
[10] = tested on: Streptomyces coelicolor; test: Inhibition of MFS efflux pump in apramycin-resistant cmlR2 null mutant Streptomyces coelicolor assessed as reduction in chloramphenicol MIC at 25 ug/ml after 48 hrs relative to control
[11] = tested on: Streptomyces coelicolor; test: Inhibition of MFS efflux pump in Streptomyces coelicolor assessed as reduction in chloramphenicol MIC at 75 ug/ml after 48 hrs relative to control
[12] = tested on: Streptomyces coelicolor; test: Inhibition of MFS efflux pump in apramycin-resistant cmlR1 null mutant Streptomyces coelicolor assessed as reduction in chloramphenicol MIC at 25 ug/ml after 48 hrs relative to control
[13] = tested on: Streptomyces coelicolor; test: Inhibition of MFS efflux pump in apramycin-resistant cmlR1 null mutant Streptomyces coelicolor assessed as reduction in chloramphenicol MIC at 10 ug/ml after 48 hrs relative to control
[14] = tested on: Streptomyces coelicolor; test: Inhibition of MFS efflux pump in apramycin-resistant cmlR2 null mutant Streptomyces coelicolor assessed as reduction in chloramphenicol MIC at 75 ug/ml after 48 hrs relative to control
[15] = tested on: Streptomyces coelicolor; test: Inhibition of MFS efflux pump in Streptomyces coelicolor assessed as reduction in chloramphenicol MIC at 10 ug/ml after 48 hrs relative to control
[16] = tested on: Streptomyces coelicolor; test: Inhibition of MFS efflux pump in Streptomyces coelicolor assessed as reduction in chloramphenicol MIC at 25 ug/ml after 48 hrs relative to control
[17] = tested on: Streptomyces coelicolor; test: Antimicrobial activity against Streptomyces coelicolor after 48 hrs; type: functional

SMILES	fold change (FC) [1]	fold change (FC) [2]	fold change (FC) [3]	fold change (FC) [4]	fold change (FC) [5]	fold change (FC) [6]	fold change (FC) [7]	fold change (FC) [8]	fold change (FC) [9]	fold change (FC) [10]	fold change (FC) [11]	fold change (FC) [12]	fold change (FC) [13]	fold change (FC) [14]	fold change (FC) [15]	fold change (FC) [16]	MIC [17]
O=C(N[C@H](CO)[C@H](O)c1ccc([N+](=O)[O-])cc1)C(Cl)Cl [CHLORAMPHENICOL]	2	16	1.6	4	–	–	–	–	–	–	–	–	–	–	–	–	–
CS(=O)(=O)c1ccc([C@@H](O)[C@@H](CO)NC(=O)C(Cl)Cl)cc1 [THIAMPHENICOL]	–	>10	–	–	–	–	–	–	–	–	–	–	–	–	–	–	–
COC(=O)[C@H]1[C@H]2C[C@@H]3c4[nH]c5cc(OC)ccc5c4CCN3C[C@H]2C[C@@H](OC(=O)c2cc(OC)c(OC)c(OC)c2)[C@@H]1OC	–	–	–	–	4	3.3	1.3	2	3.3	2	4	2.5	2.5	2	1.3	2.7	–
N=C(N)NCCC[C@H](NC(=O)[C@@H](N)Cc1ccccc1)C(=O)Nc1ccc2ccccc2c1 [PABETAN] (H-Phe-Arg-βNA)	–	–	–	–	4	3.3	1.7	1.7	5	1.7	8	3.3	2.5	1.7	2.7	3.2	200 µg/mL (≈ 448 µM)
CS(=O)(=O)c1ccc([C@@H](O)[C@@H](CF)NC(=O)C(Cl)Cl)cc1 [FLORFENICOL]	–	3	1.8	–	–	–	–	–	–	–	–	–	–	–	–	–	–
